Patent US20190365717A1, “TREATING PATHOLOGICAL CONDITIONS BY DIRECT AND INDIRECT TARGETING OF SIRPA-CD47 INTERACTION” (STICHTING HET NEDERLANDS KANKER INSTITUUT-ANTONI VAN …, priority 2017, published 2019)

Key:
[1] = system: HAP1 cells; experiment: Small molecule inhibition of glutaminyl cyclase: anti-CD47 clone CC2C6 binding, flow cytometry; format: cell-based, human
Description: (§1) Surface levels of CD47 were assessed by performing immunohistochemical staining cells with fluorochrome labelled antibodies directed against CD47 (clones CC2C6, 2D3, B6H12., see Table 1) at a dilution of 1:50 in PBS containing 0.5% w/v BSA (Sigma) and 0.2% w/v sodium azide (Sigma) (“FACS buffer”) for 30 minutes, at 4° C., protected from light. SIRPα binding to CD47 was assessed by incubating cells with recombinant extracellular domain of human SIRPα fused to human IgG ((SIRPα-Fc); Recombinant Human SIRP alpha/CD172a Fc Chimera Protein see Table 1) at a dilution of 1:50 in FACS buffer for 30 minutes, at 4° C., protected from light. After 1 wash with FACS buffer to remove unbound SIRPα-Fc, cells were immunostained with a fluorochrome labelled antibody against human IgG (HP6017, see Table 1) for 30 minutes, at 4° C., protected from light. After 2 washes with FACS buffer to remove unbound antibody, immunohistochemical staining intensity or binding intensity was analyzed on an LSRII (BD Bioscience).

[2] = system: HAP1, RKO, A375, A549 and DLD1 cells; settings: PBD150 1000 microM, 72 hours, medium refreshed every 24 hours
Description: as §1
Next, HAP1, RKO, A375, A549 and DLD1 cells were treated for 72 hours with PBD150 (1000 microM) or vehicle and medium was refreshed every 24 hours.

[3] = biological target: human QPCTL (Homo sapiens, UniProt Q9NXS2); settings: cited from earlier work
Sequence of human QPCTL (Q9NXS2 whole entry): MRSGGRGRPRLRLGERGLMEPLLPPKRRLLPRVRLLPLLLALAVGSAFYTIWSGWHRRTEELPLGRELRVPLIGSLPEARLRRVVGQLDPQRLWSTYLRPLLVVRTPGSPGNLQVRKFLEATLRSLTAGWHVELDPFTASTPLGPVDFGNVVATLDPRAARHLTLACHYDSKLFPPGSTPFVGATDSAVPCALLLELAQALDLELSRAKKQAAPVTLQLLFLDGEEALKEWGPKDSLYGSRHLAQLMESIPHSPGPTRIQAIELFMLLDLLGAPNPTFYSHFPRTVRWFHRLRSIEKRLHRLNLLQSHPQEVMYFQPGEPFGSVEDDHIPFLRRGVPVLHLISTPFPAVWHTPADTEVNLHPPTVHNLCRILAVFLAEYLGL

[4] = system: CD47 pyroglutamylation in HAP1 cells; experiment: QPCTL inhibitor assay: CD47 pyroglutamylation (CC2C6 / 2D3 staining); format: cell-based, human; settings: 48 hours, 10-fold dilutions, maximum 500 μM
Description: An equal volume of HAP1 (200,000/well), A375 (50,000/well) or RKO (100,000/well) cells was added and QPCTL and CD47 knockout cells were taken along in control wells.
After 48 hours incubation at 37 degrees, 5% CO2, cells were washed once with PBS before releasing with 100 μl TrypIE dissociation reagent per well and transfer to V-bottom 96-well plates (Greiner Bio-One) pre-filled with 100 μl FACS buffer (10% FCS/PBS). Cells were spun 3′ at 3000 rpm, washed once with FACS buffer and again spun 3′ at 3000 rpm. Next, cells were incubated for 2 hours at 4 degrees with a mix of 1:500 FITC-conjugated anti-human CD47 clone 2D3 and 1:500 Alexa647-conjugated anti-human CD47 clone CC2C6 for the pyroglutamylation assays. Alternatively, cells were incubated with 50 μl 1:50 recombinant SIRPα-human Fc fusion protein in FACS buffer for the SIRPα assays. For the SIRPα assays, two wash steps followed by spinning 3′ at 3000 rpm and resuspending the cells in FACS buffer before spinning a final time and resuspending and incubating the pellet for 1 hour at 4 degrees in 100 μl 1:100 APC-conjugated rabbit-anti-human antibody. Cells of both assay were spun down and washed twice with FACS buffer to remove unbound antibody. Cells were again spun down and taken up in 300 μl FACS buffer before analyzed on a FACSAria III using FACS Diva software (BS Biosciences). The median fluorescence intensity (MFI) of each sample was linearly transformed to scale between the MFIs of wildtype and CD47 knockout cells in case of the 2D3 antibody and the wildtype and QPCTL knockout cells in case of the CC2C6 antibody.

[5] = biological target: T1, recombinant human isoQC (Homo sapiens, UniProt Q9NXS2); experiment: IsoQC assay (coupled H-Gln-AMC / pGAPase fluorescence assay); format: biochemical; settings: 10 μM H-Gln-AMC, 1 hour at 37° C., maximum and ten- and hundredfold lower concentrations
T1 construct: enzymatically active region of human isoQC (S53-L382, Huang et al., JBC, 286, 12439-12449, 2011); GST with enterokinase site (N, cleaved yes); made in house; host or cells: E. coli, pET41(+) vector
T1 sequence (Q9NXS2 53-382): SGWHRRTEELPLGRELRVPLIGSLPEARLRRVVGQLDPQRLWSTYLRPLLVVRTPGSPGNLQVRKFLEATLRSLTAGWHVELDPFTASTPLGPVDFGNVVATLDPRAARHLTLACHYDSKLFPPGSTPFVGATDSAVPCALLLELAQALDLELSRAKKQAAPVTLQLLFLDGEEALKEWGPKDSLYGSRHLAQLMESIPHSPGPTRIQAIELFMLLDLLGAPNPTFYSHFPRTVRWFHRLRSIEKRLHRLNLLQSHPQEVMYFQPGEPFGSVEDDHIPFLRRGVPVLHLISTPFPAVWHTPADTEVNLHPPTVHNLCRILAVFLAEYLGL
Text: The Golgi luminal, enzymatically active region of human isoQC (S53-L382, Huang et al., JBC, 286, 12439-12449, 2011) was obtained by expression in E. coli of an N-terminally GST-Enterokinase, C-terminally 6× His tagged construct (“6× His” disclosed as SEQ ID NO: 15) in the pET41(+) vector and subsequent purification and enterokinase digestion. Absence of pyroglutamylating activity in an enzymatic dead variant that was cloned, expressed and purified in parallel ruled out that the purification strategy isolates any endogenously present pyroglutamylating activity.
Inhibition of isoQC activity was assessed by incubating 30 μl 50 mM Tris pH8.0 solutions containing 10 μM H-Gln-AMC (Bachem cat.no. 4003647.0100, dissolved in 25 mM HEPES), 1% DMSO and 750 pg/μl recombinant isoQC in the presence or absence of inhibitor for 1 hour at 37° C. A 5-minute incubation at 98° C. followed to stop the reaction and inactivate the enzyme. Next, 25 μl of the reaction was transferred to a 384-well plate containing 25 μl pGAPase enzyme (1:200 diluted in 50 mM Tris pH8.0, 10 mM Dithiothreitol (DTT), enzyme obtained from Qiagen, cat. no. 34342) and incubated for 10 minutes at 37° C. before reading the fluorescence using a SpectraMax Id3 platereader with excitation wavenlength set at 380 nm and emission at 450 nm. Readings were corrected by subtracting background signal from a control well containing no isoQC enzyme and subsequently normalized by dividing through the signal of a well containing enzyme but no inhibitor.

[6] = system: A375, A431, Raji, A549, DLD1, HAP1, RKO and SKBR3 cells; experiment: SEN177 and PQ912 treatment, cell surface binding of hSIRPα-Fc and anti-CD47 antibodies, flow cytometry; format: cell-based, human; parameters: dose or concentration left out as unconfirmed; settings: refreshed every day, four days
Description: (§2) After indicated antibody stainings, cells were washed with FACS buffer to remove unbound antibody and DAPI was added to allow dead cell exclusion and samples were analyzed on an LSRII or LSRFortessa (BD Bioscience).
(§3) DMSO or inhibitor was refreshed every day and after four days, cells were analyzed by flow cytometry.

[7] = system: pyroglutamate-modified CD47 in A375 melanoma cells; experiment: Analysis of αCD47-CC2C6 / αCD47-B6H12 immunoprecipitates of HA-tagged CD47; format: cell-based, human; settings: untreated versus SEN177-treated cells, 10 μM SEN177 for 16 h
Description: At the day of analysis, cells were starved in methionine- and cysteine-free medium for 1 h at 37° C. Subsequently, cells were pulse-labelled with 0.75 mCi/600 μL [^35S]Cys/[^35S]Met (PerkinElmer) for the indicated time period. Cells were washed with PBS to remove residual [^35S]Cys/[^35S]Met and then cultured in regular medium with 1 mM ‘cold’ methionine and cysteine for the indicated time period. Cells were lysed and [^35S]Cys/[^35S] incorporation was measured via TCA precipitation of aliquots of lysates on 3 MM Whatman paper and counting in a Perkin Elmer LSC 2800 ultima gold scintillation counter. Next, for pre-clearing and IP purposes, purified mouse IgG1 kappa isotype control (Biolegend, 400102), anti-human CD47 antibody B6H12.2 (Novus, NBP2-31106), and purified anti-human CD47 antibody CC2C6 (Biolegend, 323102) was bound to protein-G-coated Dynabeads (ThermoFisher Scientific) according to manufacturer's instructions. […] Next, immunoprecipitates were heated at 50° C. for 10 min with 2× Laemmli buffer and analyzed using a Novex NuPAGE Gel Electrophoresis System (Thermo Fisher Scientific). Gels were treated with 1 M Na salicylate pH 5.6 before drying and then analyzed on Fujifilm BAS-MP phosphor imager screens 4° C. Screens were analyzed on a lasser scanner Typhoon FLA 9500.

[8] = system: QPCTL-deficient lung cancer (A549) and epidermoid carcinoma (A431) cells; experiment: SEN177 treatment of QPCTL-deficient cells, SIRPα binding by flow cytometry; format: cell-based, human
Description: as §2, §3

[9] = system: B16F10 melanoma cells and Ba/F3-Her2 pro-B cells; experiment: SEN177 treatment of murine cells, mSIRPα-Fc and αmCD47-MIAP301 binding, flow cytometry; format: cell-based; settings: SEN177, both cell lines
Description: as §2, §3

[10] = system: Ba/F3-Her2 cells; experiment: ADCC of 51Cr-labeled Ba/F3-Her2 target cells by human effector cells; format: cell-based, murine; settings: human neutrophils, with anti-Her2, 10 μM SEN177, 4 h 51Cr-release
Description: (§4) Briefly, 1×10^6 target cells were labelled with 100 μCi (3.7 MBq) ^51Cr for 2 h. After extensive washing, cell numbers were adjusted to 1×10^6/mL. The polymorphonuclear leukocyte (PMN) fraction from peripheral blood of healthy donors (UMC Utrecht, Utrecht) was isolated by Ficoll/Histopaque separation (GE Healthcare; Sigma-Aldrich). Effector cells and target cells were added to round-bottom microtiter plates (Corning Incorporated) (E:T ratio=40:1), in the presence of the indicated concentration of a Her2 antibody. After 4 h incubation at 37° C., ^51Cr release was measured. Percentage specific lysis was calculated using the following formula: ((experimental cpm—basal cpm)/(maximal cpm—basal cpm))×100, with maximal lysis determined in the presence of 3% triton and basal lysis determined in the absence of antibody and effector cells. […] All experiments were performed in triplicate.

[11] = system: Ba/F3-Her2 cells; experiment: ADCC of 51Cr-labeled Ba/F3-Her2 target cells by mouse effector cells; format: cell-based; settings: murine immune cells isolated from whole blood as effector cells, anti-Her2 IgA1
Description: as §4
In brief, to obtain mouse effector cells, blood was collected from pegylated granulocyte colony-stimulating factor (G-CSF)-stimulated human FcaRl transgenic Balb/c mice from the retro-orbital plexus into Li-heparin tubes. Erythrocytes were lysed by incubation in water for […], and total leukocytes were resuspended in medium (half the volume of the original blood volume). 50 μL of total leukocytes, containing ˜70% PMNs, were added per well.

[12] = system: short-term cultures of melanoma xenografts; experiment: SEN177 treatment of short-term melanoma PDX cell lines, FACS binding; format: cell-based, human; settings: 10 μM SEN177 for 4 days, six cultures
Text: Cell lines: Short-term cell lines from primary melanoma patient-derived xenografts (PDX) were generated as described (Kemper et al., EMBO Mol. Med. 7, 1104-1118, 2015) and were a gift from D. Peeper and K. Kemper. […]

[13] = Phase 1 study with 200 healthy young and elderly volunteers; cited from earlier work
[14] = system: QPCT and QPCTL; settings: Phase 1 study with 200 healthy young and elderly volunteers; cited from earlier work

Question: Which “CC2C6 binding after withdrawal” value ([1]; HAP1 cells subsequently cultured 48 hrs without PBD150) does the source give for `COc1ccc(NC(=S)NCCCn2ccnc2)cc1OC` [PBD150] here?
Answer: The value was “restored to normal levels”.

Question: And the “CC2C6 bound to the surface” value ([1]; HAP1 cells, 72 hours, PBD150 1000 microM)?
Answer: The value was “decreased”.

Question: What about the 2D3 binding [2] of the same compound?
Answer: The 2D3 binding was “unchanged”.

Question: What about the CC2C6 binding [2] of the same compound?
Answer: Its CC2C6 binding is “decreased”.

Question: And the SIRPα-Fc binding [2]?
Answer: Its SIRPα-Fc binding is “decreased”.

Question: And the Ki [3]?
Answer: Its Ki is 60 nM.

Question: Which “pE-CD47 signal (antibody clone CC2C6)” value [4] does the source give for `Cc1ccc(C2C(=S)NC(=O)N2c2ccc3[nH]cnc3c2)c(F)c1F` (centres unmarked) [compound 000040, 1-(1H-benzo[d]imidazol-5-yl)-5-(2,3-difluoro-4-methylphenyl)-4-thioxoimidazolidin-2-one] here?
Answer: The value was “did not show convincing reactivity”.

Question: What about the isoQC activity [5] of the same compound?
Answer: Its isoQC activity is “did show some activity”.

Question: Which CD47 surface levels [6] does the source give for `Cn1cnnc1C1CCN(c2ncccc2-c2ccc(F)nc2)CC1` [SEN177] here?
Answer: Its CD47 surface levels is “unaffected”.

Question: And the SIRPα-Fc staining ([6]; 8 out of 8 cell lines tested, same extent as in QPCTL deficient cells)?
Answer: Its SIRPα-Fc staining is “reduced”.

Question: And the “pyroglutamate-modified CD47” value [7]?
Answer: The value was “near-complete inhibition”.

Question: And the SIRPα binding [8]?
Answer: The SIRPα binding was “did not further reduce”.

Question: What about the “binding of SIRPα (mSIRPα-Fc)” value [9] of the same compound?
Answer: The value was “reduced”.

Question: What about the “total CD47 surface levels” value [9] of the same compound?
Answer: The value was “without altering”.

Question: And the “neutrophil-mediated lysis of tumor cells” value [10]?
Answer: Its value is “synergized”.

Question: What about the “lysis of tumor cells by murine immune cells” value [11] of the same compound?
Answer: The value was “same effects”.

Question: And the CD47 protein levels [12]?
Answer: The CD47 protein levels was “unaltered”.

Question: And the “Binding of SIRPα” value ([12]; versus untreated cells)?
Answer: Its value is “significantly decreased”.

Question: With `Cc1ccc(C2C(c3ccc(O)cc3)=C(O)C(=O)N2CCCn2ccnc2)cc1` (centres unmarked) [compound 000046, 3-Hydroxy-4-(4-hydroxy-phenyl)-1-(3-imidazol-1-yl-propyl)-5-p-tolyl-1,5-dihydro-pyrrol-2-one] as the compound, how does the “pE-CD47 signal (antibody clone CC2C6)” value [4] read?
Answer: Its value is “did not show convincing reactivity”.

Question: What about the isoQC activity [5] of the same compound?
Answer: Its isoQC activity is “did show some activity”.

Question: For `O=C(C1=C(O)C(=O)N(c2ccc3[nH]cnc3c2)C1c1cccc(F)c1F)c1ccccc1` (centres unmarked) [compound 000033, 1-(1H-benzo[d]imidazol-5-yl)-4-benzoyl-5-(2,3-difluorophenyl)-3-hydroxy-1H-pyrrol-2(5H)-one], which “pE-CD47 signal (antibody clone CC2C6)” value [4] is on record?
Answer: The value was “did not show convincing reactivity”.

Question: What about the isoQC activity [5] of the same compound?
Answer: The isoQC activity was “did show some activity”.

Question: What does the source list for `O=C(C1=C(O)C(=O)N(c2ccc3[nH]cnc3c2)C1c1ccc(Cl)c(Cl)c1)C1CCCCC1` (centres unmarked) [compound 000015, 1-(1H-Benzoimidazol-5-yl)-4-cyclohexanecarbonyl-5-(3,4-dichloro-phenyl)-3-hydroxy-1,5-dihydro-pyrrol-2-one]?
Answer: pE-CD47 signal (antibody clone CC2C6) [4]: did not show convincing reactivity; isoQC activity [5]: did show some activity

Question: For `CCCOc1ccc([C@H]2CNC(=O)N2c2ccc3[nH]cnc3c2)cc1` [PQ912, (S)-1-(1H-benzo[d]imidazole-5-yl)-5-(4-propoxyphenyl)imidazolidin-2-one], which safety and tolerability [13] is on record?
Answer: Its safety and tolerability is “safe and well-tolerated”.

Question: What about the “level of QPCT and QPCTL inhibition” value [14] of the same compound?
Answer: Its value is “high level”.
